Inhibition data for eight compounds are collected here from patent publication EP2272817A1, “PAI-1 INHIBITOR” (Institute of Medicinal Molecular Design, Inc., priority 2008, dated 2009).

Experiment [1] deals with T1, recombinant human PAI-1 (Homo sapiens, UniProt P05121). Kind of experiment: biochemical.
The next experiment concerns the target T2, recombinant rat PAI-1 (Rattus norvegicus, UniProt P20961).
T2 sequence (P20961 24-402): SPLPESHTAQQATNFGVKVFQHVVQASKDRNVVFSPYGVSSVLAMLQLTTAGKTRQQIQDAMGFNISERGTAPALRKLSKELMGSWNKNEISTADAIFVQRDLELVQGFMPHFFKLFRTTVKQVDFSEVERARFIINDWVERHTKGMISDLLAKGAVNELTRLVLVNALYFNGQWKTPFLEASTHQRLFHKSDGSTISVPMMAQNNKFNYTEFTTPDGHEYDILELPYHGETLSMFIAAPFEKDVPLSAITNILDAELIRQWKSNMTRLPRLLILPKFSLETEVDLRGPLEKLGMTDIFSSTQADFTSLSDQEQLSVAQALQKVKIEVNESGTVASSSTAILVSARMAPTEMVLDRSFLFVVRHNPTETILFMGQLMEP
Kind of experiment: biochemical. The settings on record: read-out: Inhibition Rate of PAI-1 Activity (%).

Experiment [2] has as its target T1, recombinant human PAI-1. Kind of experiment: Test Example 2: Human PAI-1 Inhibitory Activity (pH 7.4 HEPES buffer, 10 minutes incubation with two-chain tPA). In kind it is biochemical. Also noted: purchased Molecular Innovations, Inc. As to conditions: read-out: Inhibition Rate of PAI-1 Activity (%). As to the method: 0.1 M HEPES, 0.1 M NaCl. 1 mM EDTA. 0.1 % Polyethylene glycol 8,000 (Hampton Research Corporation),
2 mM Dimethyldecylphoshine oxide [Apo-10] (Fluka Corporation)

Experiment [3] deals with T1, recombinant human PAI-1. Kind of experiment: Test Example 4: Human PAI-1 Inhibitory Activity (amount of PAI-1 bound to plate-coated one-chain tPA, ELISA). In kind it is biochemical. On the set-up: purchased Molecular Innovations, Inc. The settings on record: human PAI-1 bound to tPA, read-out: Inhibition Rate of PAI-1 Activity (%); for inhibition at 0.3 µM: Compound Concentration 0.3µM; for inhibition at 1 µM: Compound Concentration 1µM; for inhibition at 3 µM: Compound Concentration 3µM. As to the method: 100 µl of tPA solution, where one-chain recombinant tPA (hereinafter reffered to as tPA; American diagnostica, inc.) had been diluted with Buffer A to acheive a concentration of 10 µg/ml, was added to each well of a 96-well plate (Nunc Maxisorp), and the plate was incubated for one night at 4 °C to be coated with tPA. Then, after suction of tPA solution from the 96-well plate, the plate was rinsed successively with Buffer A and Buffer B. To Buffer B, solutions of the compound according to the present invention dissolved with DMSO (final DMSO concentration: 0.2 %) and recombinant human PAI-1 (Molecular Innovations, Inc.) were added. The mixtures were blended so that the final concentrations would be 0.1 to 3.0 µM and 50 ng/ml respectively, and were incubated for 15 minutes on ice. These mixed solutions were added to the rinsed 96-well plate at 100 µl/well, and incubated for 60 minutes at room temperature. To prepare a calibration curve, PAI-1 solutions without the compound according to the present invention (solutions where the final concentrations being 100, 50, 25, 12.5, 6.25, 3.13, or 1.56 ng/ml PAI-1) were added at 100 µl/well, and the plate was incubated for 60 minutes at room temperature, as standard.
After incubation, the reaction mixture was removed by suction, and each well was rinsed with Wash Buffer. Next, anti-human PAI-1 monoclonal antibody (PROGEN Inc.) diluted with Buffer C to be 3.0 µg/ml was added to the 96-well plate at 100 µl/well, and the plate was incubated for 1 hour at room temperature. After rinsing each well with Wash Buffer, alkaline phosphatase-labeled goat anti-mouse IgG (H+L) (Jackson ImmunoResearch, Inc.) diluted with Buffer D to be 0.12 µg/ml was added at 100 µl/well, and the plate was incubated for 1 hour at room temperature. After rinsing each well with Wash Buffer, 1.0 mg/ml p-Nitrophenyl Phosphate (SIGMA) was added to the 96-well plate at 100 µl/well to start the reaction. After 30 to 60 minutes, 25 µl of 0.5 N NaOH was added to stop the reaction, and the absorbance was measured at 405 nm using a multiplate reader (GENios; TECAN G.M.B.H.).
Based on the calibration curve prepared from the standard wells, amounts of PAI-1 bound to tPA in the wells that had been treated with the compound according to the present invention were calculated, and the PAI-1 inhibition rates by the compounds according to the present invention were obtained by the following equation. [API-1InhibitionRate(%)] = [1-(amountofPAI-1boundtotPaonthewellbytreatmentwiththecompondaccordingtothepresentinvention)/(amountofPAI-1boundtotPAonthewellbytreatmentwithPAI-1solutionnotincledingthecompondaccordingtotheinvention(solution having the final concentration of 50 nb/ml PAI-1)] × 100 [formula] • <Composition of Buffer A> 0.1 M Tris-HCl, 150 mM NaCl, pH 7.7 • <Composition of Buffer B> 50 mM sodium phosphate, 0.1 M NaCl, 1 mM EDTA, pH 6.6 • <Composition of Buffer C> 50 mM sodium phosphate, 100 mM NaCl, pH 7.4 • <Composition of Buffer D> 0.01 M Tris-HCl, 0.25 M NaCl, pH 8.0 • <Compositon of Wash Buffer> 0.05 % Tween 20, 0.1 % BSA in Buffer A • <Composition of p-Nitrophenyl Phosphate solution> 1 M Diethanolamine 0.5 mM MgCl2, p-Nitrophenyl phosphate, pH 9.8
A general note: ELISA stands for enzyme-linked immunosorbent assay.

The mark [4] stands for this setting: read-out: Inhibition Rate of PAI-1 Activity (%), Compound Concentration 5µM.
The mark [5] stands for this setting: read-out: Inhibition Rate of PAI-1 Activity (%), Compound Concentration 10µM.
Setting [6] is: read-out: Inhibition Rate of PAI-1 Activity (%), Compound Concentration 25µM.
Where [7] appears, read: read-out: Inhibition Rate of PAI-1 Activity (%).

Like-named read-outs stand apart in the source and are kept apart here.

T1 sequence (P05121 24-402): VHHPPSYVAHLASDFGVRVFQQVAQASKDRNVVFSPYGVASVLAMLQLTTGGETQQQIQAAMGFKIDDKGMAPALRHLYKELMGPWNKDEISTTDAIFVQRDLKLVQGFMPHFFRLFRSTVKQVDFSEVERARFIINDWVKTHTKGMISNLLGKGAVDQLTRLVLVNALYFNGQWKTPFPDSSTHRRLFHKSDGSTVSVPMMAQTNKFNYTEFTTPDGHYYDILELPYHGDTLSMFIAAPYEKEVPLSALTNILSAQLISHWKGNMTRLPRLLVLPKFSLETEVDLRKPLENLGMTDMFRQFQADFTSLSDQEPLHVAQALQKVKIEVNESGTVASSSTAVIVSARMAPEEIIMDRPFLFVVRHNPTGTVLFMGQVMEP

With `CC(C)(C)c1ccc(Oc2ccc(-c3ccc(OC(F)(F)F)cc3)cc2CCC(=O)O)cc1` [Compound 13], the inhibition at 5 µM at recombinant human PAI-1 [1] (read-out: Inhibition Rate of PAI Activity (%), Compound Concentration 5µM) turned out to be 83%. In addition, the inhibition at 10 µM on recombinant human PAI-1 [1] (read-out: Inhibition Rate of PAI Activity (%), Compound Concentration 10µM) is 93%. Moreover, on recombinant rat PAI-1, the inhibition at 0.3 µM worked out at 0%, the inhibition at 1 µM came to 14%, the inhibition at 3 µM came out at 69% and the inhibition at 10 µM is > 99%. In addition, at recombinant human PAI-1 [2], the inhibition at 0.1 µM stood at 5%, the inhibition at 0.3 µM is 8%, the inhibition at 1 µM amounted to 36% and the inhibition at 3 µM was determined as 99%. On recombinant human PAI-1 [3], the inhibition at 0.3 µM stood at 7%, the inhibition at 1 µM worked out at 14% and the inhibition at 3 µM came to 41%.

Take `CC(C)(C)c1ccc(COc2cc(Oc3ccc(OC(F)(F)F)cc3)ccc2CCC(=O)O)cc1` [Compound 78]: the inhibition at 5 µM on recombinant human PAI-1 [1] (setting [4]) came to 24%. For the same compound, the inhibition at 10 µM at recombinant human PAI-1 [1] (setting [5]) amounted to 60%. In addition, the inhibition at 25 µM on recombinant human PAI-1 [1] (setting [6]) was determined as 98%. In addition, at recombinant rat PAI-1, the inhibition at 0.3 µM amounted to 0%, the inhibition at 1 µM worked out at 4%, the inhibition at 3 µM was 71% and the inhibition at 10 µM is 90%. Besides, at recombinant human PAI-1 [2], the inhibition at 0.1 µM was found to be 0%, the inhibition at 0.3 µM was determined as 4%, the inhibition at 1 µM amounted to 21% and the inhibition at 3 µM turned out to be 96%. In addition, at recombinant human PAI-1 [3], the inhibition at 0.3 µM was 20%, the inhibition at 1 µM was found to be 39% and the inhibition at 3 µM was 83%.

Consider `CC(C)(C)c1ccc(Oc2cc(-c3ccc(OC(F)(F)F)cc3)ccc2CCC(=O)O)cc1` [Compound 80], for which, on recombinant human PAI-1 [1] (setting [7]), the inhibition at 5 µM is 43%, the inhibition at 10 µM was determined as 82% and the inhibition at 25 µM turned out to be 94%. Also, at recombinant rat PAI-1, the inhibition at 0.3 µM was determined as 0%, the inhibition at 1 µM was determined as 11%, the inhibition at 3 µM is 71% and the inhibition at 10 µM was found to be 84%. Also, on recombinant human PAI-1 [2], the inhibition at 0.1 µM stood at 3%, the inhibition at 0.3 µM came out at 11%, the inhibition at 1 µM is 44% and the inhibition at 3 µM is > 99%. On recombinant human PAI-1 [3], the inhibition at 0.3 µM is 0%, the inhibition at 1 µM came to 0% and the inhibition at 3 µM is 29%.

Turning to `CC(C)(C)c1ccc(Oc2cc(Oc3ccc(OC(F)(F)F)cc3)ccc2CCC(=O)O)cc1` [Compound 90], on recombinant human PAI-1 [1] (setting [7]), the inhibition at 5 µM is 42%, the inhibition at 10 µM amounted to 83% and the inhibition at 25 µM came to 96%. At recombinant rat PAI-1, the inhibition at 0.3 µM was found to be 0%, the inhibition at 1 µM was determined as 0%, the inhibition at 3 µM is 77% and the inhibition at 10 µM was 90%. On recombinant human PAI-1 [2], the inhibition at 0.1 µM stood at 4%, the inhibition at 0.3 µM was found to be 6%, the inhibition at 1 µM stood at 22% and the inhibition at 3 µM came out at 97%. At recombinant human PAI-1 [3], the inhibition at 0.3 µM was 2%, the inhibition at 1 µM was determined as 9% and the inhibition at 3 µM was 70%.

In the case of `CC(C)(C)c1ccc(Oc2ccc(Oc3ccc(OC(F)(F)F)cc3)cc2CCC(=O)O)cc1` [Compound 100], on recombinant human PAI-1 [1] (setting [7]), the inhibition at 5 µM is 64%, the inhibition at 10 µM is 91% and the inhibition at 25 µM came out at 98%. On recombinant rat PAI-1, the inhibition at 0.3 µM came out at 0%, the inhibition at 1 µM amounted to 7%, the inhibition at 3 µM is 70% and the inhibition at 10 µM was > 99%. On recombinant human PAI-1 [2], the inhibition at 0.1 µM worked out at 0%, the inhibition at 0.3 µM amounted to 2%, the inhibition at 1 µM is 29% and the inhibition at 3 µM stood at 93%. At recombinant human PAI-1 [3], the inhibition at 0.3 µM stood at 7%, the inhibition at 1 µM came out at 37% and the inhibition at 3 µM was 79%.

As to `O=C(O)CCc1cc(-c2ccc(OC(F)(F)F)cc2)ccc1OCCCCc1ccccc1` [Compound 102], at recombinant human PAI-1 [1] (setting [4]), the inhibition at 5 µM is 43%. The inhibition at 10 µM on recombinant human PAI-1 [1] (setting [5]) worked out at 74%. The inhibition at 25 µM on recombinant human PAI-1 [1] (setting [6]) is 97%. On recombinant rat PAI-1, the inhibition at 0.3 µM was 0%, the inhibition at 1 µM is 12%, the inhibition at 3 µM is 55% and the inhibition at 10 µM was found to be 93%. At recombinant human PAI-1 [2], the inhibition at 0.1 µM was found to be 0%, the inhibition at 0.3 µM turned out to be 7%, the inhibition at 1 µM is 28% and the inhibition at 3 µM was found to be 94%. Further, on recombinant human PAI-1 [3], the inhibition at 0.3 µM came out at 0%, the inhibition at 1 µM stood at 0% and the inhibition at 3 µM came to 83%.

In the case of `CC(C)(C)c1ccc(COc2ccc(-c3ccc(OC(F)(F)F)cc3)cc2OCC(=O)O)cc1` [Compound 105], at recombinant human PAI-1 [1] (setting [4]), the inhibition at 5 µM amounted to 38%. The inhibition at 10 µM at recombinant human PAI-1 [1] (setting [5]) came to 76%. Besides, at recombinant human PAI-1 [1] (setting [6]), the inhibition at 25 µM is > 99%. On recombinant rat PAI-1, the inhibition at 0.3 µM was determined as 0%, the inhibition at 1 µM was 6%, the inhibition at 3 µM worked out at 74% and the inhibition at 10 µM was 90%. In addition, on recombinant human PAI-1 [2], the inhibition at 0.1 µM was 2%, the inhibition at 0.3 µM was 3%, the inhibition at 1 µM was determined as 44% and the inhibition at 3 µM stood at 99%. At recombinant human PAI-1 [3], the inhibition at 0.3 µM stood at 7%, the inhibition at 1 µM worked out at 4% and the inhibition at 3 µM is 33%.

For the compound `CC(C)(Oc1cc(-c2ccc(OC(F)(F)F)cc2)ccc1OCc1ccc(C(C)(C)C)cc1)C(=O)O` [Compound 106], the inhibition at 5 µM at recombinant human PAI-1 [1] (setting [4]) is 50%. Besides, the inhibition at 10 µM on recombinant human PAI-1 [1] (setting [5]) stood at 85%. The inhibition at 25 µM at recombinant human PAI-1 [1] (setting [6]) worked out at 93%. Besides, at recombinant rat PAI-1, the inhibition at 0.3 µM stood at 0%, the inhibition at 1 µM stood at 16%, the inhibition at 3 µM was 85% and the inhibition at 10 µM was > 99%. For the same compound, on recombinant human PAI-1 [2], the inhibition at 0.1 µM turned out to be 0%, the inhibition at 0.3 µM amounted to 8%, the inhibition at 1 µM turned out to be 39% and the inhibition at 3 µM was 97%. Also, at recombinant human PAI-1 [3], the inhibition at 0.3 µM came out at 0%, the inhibition at 1 µM was 7% and the inhibition at 3 µM is 17%.
